Experimental data taken from patent US20040143007A1, “Malononitrile compounds and their use as pesticides” (priority 2001, published 2004).

Tests used:
Format in all cases: in vivo
[1] = system: Blattalla germanica (German cockroach); assay: Pesticidal test against Blattalla germanica, treated filter paper with sucrose bait (Test Example 6); conditions: Blattella germanica, 144 h; active ingredient 500 ppm, 0.7 ml on filter paper; two male adults; after 6 days
Text: Two male adults of Blattalla germanica (German cockroach) were set free in the polyethylene cup, which was then kept covered. After 6 days, their survival was examined to determine the mortality.

[2] = system: Diabrotica undecimpunctata (southern corn rootworm); assay: Pesticidal test against Diabrotica undecimpunctata, filter paper with corn seed and eggs (Test Example 4); conditions: active ingredient 50 ppm, 1 ml on filter paper, 30 to 50 eggs, 25° C.
Experimental: One germinated seed of corn and 30 to 50 eggs of Diabrotica undecimpunctata (southern corn rootworm) was placed on the filter paper in the polyethylene cup, which was then kept covered and left in a room at 25° C. On the 6th day after, the number of surviving larvae of Diabrotica undecimpunctata was examined.

[3] = system: Culex pipiens pallens (common mosquito); assay: Pesticidal test against Culex pipiens pallens, larvae in treated water (Test Example 7); conditions: 24 h, 0.7 ml of 500 ppm test liquid in 100 ml water (active ingredient 3.5 ppm), twenty final-instar larvae, after 1 days
Experimental: In 100 ml of ion-exchanged water, the test liquid had been prepared as described above, was added dropwise in an amount of 0.7 ml (the concentration of active ingredient was 3.5 ppm). Twenty final-instar larvae of Culex pipiens pallens (common mosquito) were set free in the solution. After 1 days, their survival was examined to determine the mortality.

[4] = system: Musca domestics (house fly); assay: Pesticidal test against Musca domestics, treated filter paper with sucrose bait (Test Example 5); conditions: active ingredient 500 ppm, 0.7 ml on filter paper, ten female adults, after 24 hours
Experimental: Ten female adults of Musca domestics (house fly) were set free in the polyethylene cup, which was then kept covered. After 24 hours, their survival was examined to determine the mortality.

In the case of `N#CC(C#N)(Cc1ccc(Cl)cc1)CC1CC1` [Compound 1, 2-(4-chlorobenzyl)-2-(cyclopropylmethyl)malononitrile], the mortality at 500 ppm [1] is reported as 100%, the “number of surviving pests on the 6th day after” value [2] is reported as 0 and the mortality at 3.5 µg/mL [3] is reported as 100%.

`N#CC(C#N)(Cc1ccc(OC(F)(F)F)cc1)CC1CC1` [Compound 2, 2-(cyclopropylmethyl)-2-(4-(trifluoromethoxy)benzyl)malononitrile] was tested, and the mortality at 500 ppm [4] was 100%, the mortality at 500 ppm [1] was 100% and the “number of surviving pests on the 6th day after” value [2] was 0. The mortality at 3.5 µg/mL [3] was 100%.

With `N#CC(C#N)(Cc1ccc(OC(F)(F)F)cc1)CC1CCC1` [Compound 3, 2-(cyclobutylmethyl)-2-(4-(trifluoromethoxy)benzyl)malononitrile] the mortality at 500 ppm [4] was 100% and the mortality at 3.5 µg/mL [3] was 100%.

For `N#CC(C#N)(Cc1ccc(SC(F)(F)F)cc1)CC1CCC1` [Compound 4, 2-(cyclobutylmethyl)-2-(4-(trifluoromethylthio)benzyl)malononitrile], the mortality at 500 ppm [4] was 100%, the mortality at 500 ppm [1] was 100% and the mortality at 3.5 µg/mL [3] was 100%.

In the case of `N#CC(C#N)(Cc1ccc(OC(F)(F)F)cc1)CC1CC1(Cl)Cl` (stereo not drawn) [Compound 5, 2-((2,2-dichlorocyclopropyl)methyl)-2-(4-(trifluoromethoxy)benzyl)malononitrile], the mortality at 500 ppm [4] is reported as 100% and the mortality at 3.5 µg/mL [3] is reported as 100%.

For `N#CC(C#N)(Cc1ccc(C(F)(F)F)cc1)CC1CC1` [Compound 6, 2-(cyclopropylmethyl)-2-(4-(trifluoromethyl)benzyl)malononitrile], the mortality at 500 ppm [4] was 100%, the mortality at 500 ppm [1] was 100% and the mortality at 3.5 µg/mL [3] was 100%.

`N#CC(C#N)(Cc1ccc(C(F)(F)F)cc1)CC1CCC1` [Compound 7, 2-(cyclobutylmethyl)-2-(4-(trifluoromethyl)benzyl)malononitrile] showed a mortality at 500 ppm [4] of 100%, a mortality at 500 ppm [1] of 100% and a mortality at 3.5 µg/mL [3] of 100%.

Work on `N#Cc1ccc(CC(C#N)(C#N)CC2CC2(Cl)Cl)cc1` (stereo not drawn) [Compound 9, 2-(4-cyanobenzyl)-2-((2,2-dichlorocyclopropyl)methyl)malononitrile] yielded a mortality at 3.5 µg/mL [3] of 100%.

`N#CC(C#N)(Cc1ccc(C(F)(F)F)cc1)CC1CC1(Cl)Cl` (stereo not drawn) [Compound 10, 2-((2,2-dichlorocyclopropyl)methyl)-2-(4-(trifluoromethyl)benzyl)malononitrile] was tested, and the mortality at 500 ppm [4] was 100%, the mortality at 500 ppm [1] was 100% and the mortality at 3.5 µg/mL [3] was 100%.
